In publication PMC4103530, “Antimicrobial Activity of Pantothenol against Staphylococci Possessing a Prokaryotic Type II Pantothenate Kinase” (Microbes and Environments, 2014) one finds IC50 data, which are given here for 1 compound.

For assay [1], the target named is T1, SaCoaA (prokaryotic type II pantothenate kinase) (Staphylococcus aureus, UniProt Q8NVG0).
T1 construct: gene coaW; recombinant from pET-28a(+) (pET-Sa-coaA) in E. coli BL21 (DE3), nickel-resin purified, His-tag
T1 sequence (Q8NVG0 1-267): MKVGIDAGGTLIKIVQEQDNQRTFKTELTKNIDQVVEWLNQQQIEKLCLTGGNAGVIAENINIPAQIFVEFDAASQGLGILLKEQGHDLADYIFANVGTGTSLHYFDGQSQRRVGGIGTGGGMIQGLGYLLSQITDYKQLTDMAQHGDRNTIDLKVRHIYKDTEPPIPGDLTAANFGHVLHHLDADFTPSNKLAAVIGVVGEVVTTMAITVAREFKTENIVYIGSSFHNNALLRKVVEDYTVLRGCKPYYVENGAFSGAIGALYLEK
Description: radiometric pantothenate kinase assay with D-[…]pantothenate. It is filed as biochemical.

In assay [2] the target is T2, EcCoaA (prokaryotic type I pantothenate kinase) (Escherichia coli, UniProt P0A6I3).
T2 construct: gene coaA; recombinant from pET15b/bPanK in E. coli BL21 (DE3), nickel-resin purified, His-tag
T2 sequence (P0A6I3 1-316): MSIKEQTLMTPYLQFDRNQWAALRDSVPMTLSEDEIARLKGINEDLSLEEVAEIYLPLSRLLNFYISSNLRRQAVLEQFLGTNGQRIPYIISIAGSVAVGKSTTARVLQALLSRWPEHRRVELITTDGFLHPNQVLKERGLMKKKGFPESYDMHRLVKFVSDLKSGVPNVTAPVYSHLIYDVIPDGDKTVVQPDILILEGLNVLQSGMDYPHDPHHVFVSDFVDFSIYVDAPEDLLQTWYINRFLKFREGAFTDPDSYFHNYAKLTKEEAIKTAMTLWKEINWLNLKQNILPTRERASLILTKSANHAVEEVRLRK
Described as above. It is filed as biochemical.

Turning to `CC(C)(CO)[C@@H](O)C(=O)NCCCO` [d-pantothenol], the 50% inhibitory concentration (IC50) in assay [1] stood at 1.68 mM; in assay [2] it was 6.06 mM.

The term IC50 denotes the midpoint of a concentration-inhibition curve. Read a low IC50 as greater potency in that assay.
